{"source": "paper PMC11079878", "about": "(ACS Omega, 2024)", "key": {"[1]": {"test_system": "microcystins in Microcystis (MVCC42) cultures", "type": "cell-based, Microcystis aeruginosa"}, "[2]": {"test_system": "Lolium multiflorum (Ray grass)", "details": "previously reported cyclotetrapeptides; cited from earlier work"}, "[3]": {"details": "qualitative; cited from earlier work"}, "[4]": {"test_system": "Lolium multiflorum (Ray grass)", "experiment": "Herbicidal activity, germination in agar methodology", "type": "in vivo", "details": "67 μg/mL in agar; Ryegrass, 12 days; three replicates; Figure S48"}, "HepG2 cells": {"test_system": "HepG2 cells", "details": "qualitative; cited from earlier work"}, "[5]": {"test_system": "Microcystis aeruginosa strain (MVCC42)", "experiment": "Cyanobacteria growth inhibition", "details": "colistin 30 μg/mL, positive control; duplicates, 7–10 days"}}, "note": "[ ]: non-standard residue; d: D form. NMeF = CN[C@@H](Cc1ccccc1)C(=O)O; NMeA = CN[C@@H](C)C(=O)O"}
{"compound": "colistine", "values": [{"measurement": "inhibition of microcystins concentration (%)", "setting": "[1]", "result": 90, "unit": "%"}]}
{"compound": "cyclo([NMeA]LFG) [compound 17]", "values": [{"measurement": "radicle growth inhibition (reported activity)", "setting": "[2]", "result": 71, "unit": "%"}]}
{"compound": "cyclo([NMeA]L[NMeF]G) [compound 24]", "values": [{"measurement": "radicle growth inhibition (reported activity)", "setting": "[2]", "result": 81, "unit": "%"}]}
{"compound": "cyclo(NMe-Ala-Leu-NMe-Δ^z-Phe-Gly) (head to tail) [Tentoxin]", "values": [{"measurement": "phytotoxic effect on seedlings", "setting": "[3]", "result": "causes seedling chlorosis"}]}
{"compound": "NH-MeAla-Leu-D-Phe-β-Ala-OH [compound 29]", "values": [{"measurement": "leaf development (%)", "setting": "[4]", "result": "not active"}]}
{"compound": "versicotide D", "values": [{"measurement": "phytotoxicity", "setting": "[3]", "result": "high phytotoxicity"}, {"measurement": "cytotoxicity on HepG2 cells", "setting": "HepG2 cells", "result": "low cytotoxicity"}]}
{"compound": "CCc1cccc(C)c1N(C(=O)CCl)[C@@H](C)COC", "note": "[Positive control, S-metolachlor]", "values": [{"measurement": "reduction of chlorophyll a (%)", "setting": "[5]", "result": 99, "unit": "%"}]}
{"compound": "cyclo(AL[dF]G) [compound 16]", "values": [{"measurement": "radicle growth inhibition (reported activity)", "setting": "[2]", "result": 41, "unit": "%"}]}
